Data published in ChEMBL document CHEMBL2375265, “Novel oleanolic vinyl boronates: synthesis and antitumor activity” (Eur J Med Chem, 2013).
Calls of active or inactive are those of the source. No cut-off for these calls is given here. Peptide text beside a SMILES is read from it. * marks the point of attachment. Cbz = O=C(OCc1ccccc1)*

Columns and labels:
[1] = Cytotoxicity against human fibroblasts assessed as growth inhibition after 48 hrs by MTT assay; type: cell-based; conditions: Fibroblast
SW480 = test: Cytotoxicity against human SW480 cells assessed as growth inhibition after 48 hrs by MTT assay; type: functional, cell-based; conditions: SW480, 48 h
SK-OV-3 = test: Cytotoxicity against human SKOV3 cells assessed as growth inhibition after 48 hrs by MTT assay; type: functional, cell-based; conditions: SK-OV-3, 48 h
HeLa = test: Cytotoxicity against human HeLa cells assessed as growth inhibition after 48 hrs by MTT assay; type: functional, cell-based
JIYOYE = test: Cytotoxicity against human Jijoye cells assessed as growth inhibition after 48 hrs by MTT assay; type: functional, cell-based
K562 = test: Cytotoxicity against human K562 cells assessed as growth inhibition after 48 hrs by MTT assay; type: functional, cell-based; conditions: K562, 48 h
Jurkat [2] = test: Cytotoxicity against human Jurkat cells assessed as growth inhibition after 48 hrs by MTT assay; type: functional, cell-based
Jurkat [3] = test: Inhibition of trypsin-like activity of proteasome isolated from human Jurkat cells using Boc-LRR-AMC as substrate assessed as residual activity at 10 uM incubated for 30 mins followed by substrate addition measured for 2 hrs by fluorescence assay relative to control; type: cell-free
Jurkat [4] = test: Inhibition of chymotrypsin-like activity of proteasome isolated from human Jurkat cells using Suc-LLVY-AMC as substrate assessed as residual activity at 10 uM incubated for 30 mins followed by substrate addition measured for 2 hrs by fluorescence assay relative to control; type: cell-free
Jurkat [5] = test: Inhibition of proteasome in human Jurkat cells assessed as accumulation of ubiquitinated protein at 50 uM by Western blot analysis; type: cell-based
Jurkat [6] = test: Inhibition of trypsin-like activity of proteasome in human Jurkat cells at 50 uM after 30 mins by fluorescence assay; type: cell-based
Jurkat [7] = test: Inhibition of chymotrypsin-like activity of proteasome in human Jurkat cells assessed as residual activity at 50 uM after 30 mins by fluorescence assay relative to control; type: cell-based
Jurkat [8] = test: Inhibition of trypsin-like activity of proteasome isolated from human Jurkat cells using Boc-LRR-AMC as substrate assessed as residual activity at 100 uM incubated for 30 mins followed by substrate addition measured for 2 hrs by fluorescence assay relative to control; type: cell-free
Jurkat [9] = test: Inhibition of trypsin-like activity of proteasome isolated from human Jurkat cells using Boc-LRR-AMC as substrate assessed as residual activity at 50 uM incubated for 30 mins followed by substrate addition measured for 2 hrs by fluorescence assay relative to control; type: cell-free
Jurkat [10] = test: Inhibition of trypsin-like activity of proteasome isolated from human Jurkat cells using Boc-LRR-AMC as substrate assessed as residual activity at 25 uM incubated for 30 mins followed by substrate addition measured for 2 hrs by fluorescence assay relative to control; type: cell-free
Jurkat [11] = test: Inhibition of chymotrypsin-like activity of proteasome isolated from human Jurkat cells using Suc-LLVY-AMC as substrate assessed as residual activity at 100 uM incubated for 30 mins followed by substrate addition measured for 2 hrs by fluorescence assay relative to control; type: cell-free
Jurkat [12] = test: Inhibition of chymotrypsin-like activity of proteasome isolated from human Jurkat cells using Suc-LLVY-AMC as substrate assessed as residual activity at 50 uM incubated for 30 mins followed by substrate addition measured for 2 hrs by fluorescence assay relative to control; type: cell-free
Jurkat [13] = test: Inhibition of chymotrypsin-like activity of proteasome isolated from human Jurkat cells using Suc-LLVY-AMC as substrate assessed as residual activity at 25 uM incubated for 30 mins followed by substrate addition measured for 2 hrs by fluorescence assay relative to control; type: cell-free
Jurkat [14] = test: Induction of apoptosis in human Jurkat cells assessed as dead cells at 20 uM by propidium iodide/annexin V staining-based FACS flow cytometric analysis (reference value: 0.66%); type: functional
Jurkat [15] = test: Induction of apoptosis in human Jurkat cells assessed as late apoptotic cells at 20 uM by propidium iodide/annexin V staining-based FACS flow cytometric analysis (reference value: 0.37%); type: functional
Jurkat [16] = test: Induction of apoptosis in human Jurkat cells assessed as early apoptotic cells at 20 uM by propidium iodide/annexin V staining-based FACS flow cytometric analysis (reference value: 1.87%); type: functional
Jurkat [17] = test: Cell cycle arrest in human Jurkat cells assessed as accumulation at sub G0/G1 phase at 20 uM by propidium iodide staining-based FACS flow cytometric analysis (reference value: 4.81%); type: functional
Jurkat [18] = test: Cell cycle arrest in human Jurkat cells assessed as accumulation at G2/M phase at 20 uM by propidium iodide staining-based FACS flow cytometric analysis (reference value: 16.63%); type: functional
Jurkat [19] = test: Cell cycle arrest in human Jurkat cells assessed as accumulation at S phase at 20 uM by propidium iodide staining-based FACS flow cytometric analysis (reference value: 26.91%); type: functional
Jurkat [20] = test: Cell cycle arrest in human Jurkat cells assessed as accumulation at G0/G1 phase at 20 uM by propidium iodide staining-based FACS flow cytometric analysis (reference value: 52.59%); type: functional
Jurkat [21] = test: Induction of apoptosis in human Jurkat cells assessed as caspase 3/7 activation at 20 uM after overnight incubation by luminescence assay; type: functional, cell-based
Jurkat [22] = test: Cell cycle arrest in human Jurkat cells assessed at 20 uM by propidium iodide staining-based FACS flow cytometric analysis; type: functional

COC(=O)[C@]12CCC(C)(C)C[C@H]1C1=CC[C@@H]3[C@@]4(C)CC=C(B5OC(C)(C)C(C)(C)O5)C(C)(C)[C@@H]4CC[C@@]3(C)[C@]1(C)CC2
IC50 [1]: > 50 µM | IC50 (SW480): > 50 µM | IC50 (SK-OV-3): > 50 µM | IC50 (HeLa): > 50 µM | IC50 (JIYOYE): > 50 µM | IC50 (K562): > 50 µM | IC50 (Jurkat [2]): > 50 µM

CC1(C)CC[C@]2(C(=O)O)CC[C@]3(C)C(=CC[C@@H]4[C@@]5(C)CC=C(B6OC(C)(C)C(C)(C)O6)C(C)(C)[C@@H]5CC[C@]43C)[C@@H]2C1
IC50 [1]: > 50 µM | IC50 (SW480): > 50 µM | IC50 (SK-OV-3): > 50 µM | IC50 (HeLa): > 50 µM | IC50 (JIYOYE): > 50 µM | IC50 (K562): > 50 µM | IC50 (Jurkat [2]): > 50 µM

CC(C)C[C@@H](C=O)NC(=O)[C@H](CC(C)C)NC(=O)[C@H](CC(C)C)NC(=O)OCc1ccccc1 (Cbz-Leu-Leu-Leu-aldehyde)
Activity (Jurkat [3]): < 20% | Activity (Jurkat [4]): < 20%

CC1(C)CC[C@]2(C(=O)NCC(=O)O)CC[C@]3(C)C(=CC[C@@H]4[C@@]5(C)CC=C(B6OC(C)(C)C(C)(C)O6)C(C)(C)[C@@H]5CC[C@]43C)[C@@H]2C1
inhibition (Jurkat [5]): Active | inhibition (Jurkat [6]): Active | Activity (Jurkat [7]): 25% | Activity (Jurkat [8]): 51.4% | Activity (Jurkat [9]): 84.1% | Activity (Jurkat [10]): 85.3% | Activity (Jurkat [11]): 59.3% | Activity (Jurkat [12]): 64% | Activity (Jurkat [13]): 83.6% | Activity (Jurkat [14]): 19.81% | Activity (Jurkat [15]): 13.22% | Activity (Jurkat [16]): 3.73% | Activity (Jurkat [17]): 13.79% | Activity (Jurkat [18]): 10.6% | Activity (Jurkat [19]): 13.27% | Activity (Jurkat [20]): 82.2% | Activity (Jurkat [21]): Active | IC50 [1]: > 50 µM | IC50 (SW480): 17.9 µM | IC50 (SK-OV-3): 15.4 µM | IC50 (HeLa): 28 µM | IC50 (JIYOYE): 13.4 µM | IC50 (K562): 18.2 µM | IC50 (Jurkat [2]): 15.5 µM

COC(=O)[C@]12CCC(C)(C)C[C@H]1[C@H]1C(=O)C[C@@H]3[C@@]4(C)CC=C(B5OC(C)(C)C(C)(C)O5)C(C)(C)[C@@H]4CC[C@@]3(C)[C@]1(C)CC2
IC50 [1]: > 50 µM | IC50 (SW480): > 50 µM | IC50 (SK-OV-3): > 50 µM | IC50 (HeLa): > 50 µM | IC50 (JIYOYE): > 50 µM | IC50 (K562): > 50 µM | IC50 (Jurkat [2]): > 50 µM

CC1(C)CC[C@]2(C#N)CC[C@]3(C)C(=CC[C@@H]4[C@@]5(C)CC=C(B6OC(C)(C)C(C)(C)O6)C(C)(C)[C@@H]5CC[C@]43C)[C@@H]2C1
IC50 [1]: > 50 µM | IC50 (SW480): > 50 µM | IC50 (SK-OV-3): > 50 µM | IC50 (HeLa): > 50 µM | IC50 (JIYOYE): > 50 µM | IC50 (K562): > 50 µM | IC50 (Jurkat [2]): > 50 µM

COC(=O)CNC(=O)[C@]12CCC(C)(C)C[C@H]1C1=CC[C@@H]3[C@@]4(C)CC=C(B5OC(C)(C)C(C)(C)O5)C(C)(C)[C@@H]4CC[C@@]3(C)[C@]1(C)CC2
IC50 [1]: > 50 µM | IC50 (SW480): > 50 µM | IC50 (SK-OV-3): > 50 µM | IC50 (HeLa): > 50 µM | IC50 (JIYOYE): > 50 µM | IC50 (K562): > 50 µM | IC50 (Jurkat [2]): > 50 µM

COC(=O)[C@]12CCC(C)(C)C[C@H]1[C@H]1C(=O)C=C3[C@@]4(C)CC=C(B5OC(C)(C)C(C)(C)O5)C(C)(C)[C@@H]4CC[C@@]3(C)[C@]1(C)CC2
IC50 [1]: > 50 µM | IC50 (SW480): > 50 µM | IC50 (SK-OV-3): > 50 µM | IC50 (HeLa): > 50 µM | IC50 (JIYOYE): > 50 µM | IC50 (K562): > 50 µM | IC50 (Jurkat [2]): > 50 µM

CC1(C)CC[C@]2(C(N)=O)CC[C@]3(C)C(=CC[C@@H]4[C@@]5(C)CC=C(B6OC(C)(C)C(C)(C)O6)C(C)(C)[C@@H]5CC[C@]43C)[C@@H]2C1
Activity (Jurkat [8]): 72.5% | Activity (Jurkat [9]): 77.9% | Activity (Jurkat [10]): 81.6% | Activity (Jurkat [11]): 85.6% | Activity (Jurkat [12]): 92.4% | Activity (Jurkat [13]): 95.8% | Activity (Jurkat [22]): inactive | Activity (Jurkat [21]): Active | IC50 [1]: > 50 µM | IC50 (SW480): > 50 µM | IC50 (SK-OV-3): > 50 µM | IC50 (HeLa): 34.7 µM | IC50 (JIYOYE): 8.4 µM | IC50 (K562): 8.3 µM | IC50 (Jurkat [2]): 21.6 µM

COC(=O)[C@]12CCC(C)(C)C[C@H]1[C@H]1/C(=N\O)C[C@@H]3[C@@]4(C)CC=C(B5OC(C)(C)C(C)(C)O5)C(C)(C)[C@@H]4CC[C@@]3(C)[C@]1(C)CC2
IC50 [1]: > 50 µM | IC50 (SW480): > 50 µM | IC50 (SK-OV-3): > 50 µM | IC50 (HeLa): > 50 µM | IC50 (JIYOYE): > 50 µM | IC50 (K562): > 50 µM | IC50 (Jurkat [2]): > 50 µM

COC(=O)[C@H](C)NC(=O)[C@]12CCC(C)(C)C[C@H]1C1=CC[C@@H]3[C@@]4(C)CC=C(B5OC(C)(C)C(C)(C)O5)C(C)(C)[C@@H]4CC[C@@]3(C)[C@]1(C)CC2
IC50 [1]: > 50 µM | IC50 (SW480): > 50 µM | IC50 (SK-OV-3): > 50 µM | IC50 (HeLa): > 50 µM | IC50 (JIYOYE): > 50 µM | IC50 (K562): > 50 µM | IC50 (Jurkat [2]): > 50 µM

C[C@H](NC(=O)[C@]12CCC(C)(C)C[C@H]1C1=CC[C@@H]3[C@@]4(C)CC=C(B5OC(C)(C)C(C)(C)O5)C(C)(C)[C@@H]4CC[C@@]3(C)[C@]1(C)CC2)C(=O)O
inhibition (Jurkat [5]): Active | inhibition (Jurkat [6]): Active | Activity (Jurkat [7]): 37% | Activity (Jurkat [8]): 50.8% | Activity (Jurkat [9]): 70.7% | Activity (Jurkat [10]): 85.1% | Activity (Jurkat [11]): 47.2% | Activity (Jurkat [12]): 84.3% | Activity (Jurkat [13]): 91.7% | Activity (Jurkat [14]): 16.33% | Activity (Jurkat [15]): 13.67% | Activity (Jurkat [16]): 5.37% | Activity (Jurkat [17]): 15.82% | Activity (Jurkat [18]): 12.19% | Activity (Jurkat [19]): 14.24% | Activity (Jurkat [20]): 58.78% | Activity (Jurkat [21]): Active | IC50 [1]: > 50 µM | IC50 (SW480): 28.7 µM | IC50 (SK-OV-3): 31.2 µM | IC50 (HeLa): 30.5 µM | IC50 (JIYOYE): 19.4 µM | IC50 (K562): 20.1 µM | IC50 (Jurkat [2]): 21.4 µM
